Source: ChEMBL document CHEMBL4725342, “Design, synthesis and structure-activity relationship study of piperazinone-containing thieno[3,2-d]pyrimidine derivatives as new PI3Kδ inhibitors” (Bioorg Med Chem Lett, 2020)

Experiments:
Homo sapiens = organism: Homo sapiens; assay: Selectivity index, ratio of IC50 for PI3Kalpha (unknown origin) to IC50 for PI3Kdelta (unknown origin)
[1] = biological target: T1, Phosphatidylinositol 4,5-bisphosphate 3-kinase catalytic subunit delta isoform (Homo sapiens, UniProt O00329); assay: Inhibition of PI3Kdelta (unknown origin)
T1 sequence (O00329 whole entry): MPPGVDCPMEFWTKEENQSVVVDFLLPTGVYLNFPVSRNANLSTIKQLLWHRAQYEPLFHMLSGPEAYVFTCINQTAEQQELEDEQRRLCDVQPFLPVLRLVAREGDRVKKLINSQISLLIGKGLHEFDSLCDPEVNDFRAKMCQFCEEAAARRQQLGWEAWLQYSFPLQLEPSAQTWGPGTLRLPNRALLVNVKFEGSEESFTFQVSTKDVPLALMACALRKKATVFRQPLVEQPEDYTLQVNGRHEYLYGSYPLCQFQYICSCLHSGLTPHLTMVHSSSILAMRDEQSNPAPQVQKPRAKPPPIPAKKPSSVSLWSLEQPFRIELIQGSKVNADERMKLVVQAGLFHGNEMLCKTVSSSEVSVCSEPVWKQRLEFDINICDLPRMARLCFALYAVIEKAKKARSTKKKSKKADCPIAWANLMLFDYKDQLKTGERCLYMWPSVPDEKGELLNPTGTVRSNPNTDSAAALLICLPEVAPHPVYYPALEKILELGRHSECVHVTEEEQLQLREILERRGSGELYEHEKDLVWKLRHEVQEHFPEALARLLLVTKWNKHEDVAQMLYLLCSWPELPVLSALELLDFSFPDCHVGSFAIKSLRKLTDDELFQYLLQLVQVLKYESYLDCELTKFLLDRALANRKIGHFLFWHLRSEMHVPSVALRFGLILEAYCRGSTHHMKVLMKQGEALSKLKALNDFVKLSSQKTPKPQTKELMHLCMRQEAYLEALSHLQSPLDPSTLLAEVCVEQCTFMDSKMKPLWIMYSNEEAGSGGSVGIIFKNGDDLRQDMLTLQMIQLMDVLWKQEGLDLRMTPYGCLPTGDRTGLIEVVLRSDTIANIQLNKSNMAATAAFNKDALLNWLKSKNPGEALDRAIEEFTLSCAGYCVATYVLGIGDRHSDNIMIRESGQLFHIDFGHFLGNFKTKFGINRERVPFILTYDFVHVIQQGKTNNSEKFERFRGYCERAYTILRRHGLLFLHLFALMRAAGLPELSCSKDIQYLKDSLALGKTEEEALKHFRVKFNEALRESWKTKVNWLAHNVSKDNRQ

HEK293 = assay: Cytotoxicity against human HEK293 cells assessed as reduction in cell viability by MTS assay; type: cell-based
[2] = biological target: Phosphatidylinositol 4,5-bisphosphate 3-kinase catalytic subunit beta isoform (Homo sapiens, UniProt P42338); assay: Inhibition of PI3Kbeta (unknown origin)
Phosphatidylinositol 4,5-bisphosphate 3-kinase catalytic subunit beta isoform, sequence (P42338 whole entry, canonical isoform): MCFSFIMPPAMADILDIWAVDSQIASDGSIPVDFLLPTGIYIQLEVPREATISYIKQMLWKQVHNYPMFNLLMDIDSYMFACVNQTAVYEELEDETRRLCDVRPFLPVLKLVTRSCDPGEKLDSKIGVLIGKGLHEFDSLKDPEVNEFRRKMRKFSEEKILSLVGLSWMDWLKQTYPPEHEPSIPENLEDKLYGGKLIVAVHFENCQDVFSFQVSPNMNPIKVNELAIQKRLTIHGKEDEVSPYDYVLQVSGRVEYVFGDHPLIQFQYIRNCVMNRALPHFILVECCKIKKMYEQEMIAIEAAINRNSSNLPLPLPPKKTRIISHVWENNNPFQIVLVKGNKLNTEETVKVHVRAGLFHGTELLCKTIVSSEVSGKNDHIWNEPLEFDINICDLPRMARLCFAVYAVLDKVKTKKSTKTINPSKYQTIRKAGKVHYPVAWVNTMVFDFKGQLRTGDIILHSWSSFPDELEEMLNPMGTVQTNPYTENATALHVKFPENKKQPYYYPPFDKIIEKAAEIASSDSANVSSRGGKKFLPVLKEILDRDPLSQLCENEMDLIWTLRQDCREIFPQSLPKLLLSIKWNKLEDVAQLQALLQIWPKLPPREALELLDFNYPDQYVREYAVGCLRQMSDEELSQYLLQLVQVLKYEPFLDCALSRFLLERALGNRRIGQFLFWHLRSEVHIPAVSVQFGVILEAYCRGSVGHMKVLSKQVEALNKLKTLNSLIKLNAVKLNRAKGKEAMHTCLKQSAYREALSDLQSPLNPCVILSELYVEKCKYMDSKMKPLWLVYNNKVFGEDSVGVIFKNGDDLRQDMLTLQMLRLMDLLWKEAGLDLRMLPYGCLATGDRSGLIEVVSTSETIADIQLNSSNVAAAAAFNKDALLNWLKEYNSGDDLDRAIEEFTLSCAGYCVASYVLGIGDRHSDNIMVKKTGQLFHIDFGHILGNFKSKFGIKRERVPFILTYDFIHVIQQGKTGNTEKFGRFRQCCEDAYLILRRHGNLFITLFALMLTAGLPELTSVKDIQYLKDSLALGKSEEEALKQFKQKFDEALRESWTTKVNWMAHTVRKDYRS

OCI-Ly10 = assay: Antiproliferative activity against human OCILY10 assessed as reduction in cell growth by MTS assay; type: functional, cell-based
Vero = assay: Cytotoxicity against monkey Vero cells assessed as reduction in cell viability by MTS assay; type: cell-based; conditions: Chlorocebus sabaeus
SU-DHL-6 = assay: Antiproliferative activity against human SU-DHL-6 assessed as reduction in cell growth by MTS assay; type: functional, cell-based
L02 = assay: Cytotoxicity against human L02 cells assessed as reduction in cell viability by MTS assay; type: cell-based
OCI-Ly3 = assay: Antiproliferative activity against human OCILY3 assessed as reduction in cell growth by MTS assay; type: functional, cell-based
[3] = biological target: Phosphatidylinositol 4,5-bisphosphate 3-kinase catalytic subunit gamma isoform (Homo sapiens, UniProt P48736); assay: Inhibition of PI3Kgamma (unknown origin)
Phosphatidylinositol 4,5-bisphosphate 3-kinase catalytic subunit gamma isoform, sequence (P48736 whole entry, canonical isoform): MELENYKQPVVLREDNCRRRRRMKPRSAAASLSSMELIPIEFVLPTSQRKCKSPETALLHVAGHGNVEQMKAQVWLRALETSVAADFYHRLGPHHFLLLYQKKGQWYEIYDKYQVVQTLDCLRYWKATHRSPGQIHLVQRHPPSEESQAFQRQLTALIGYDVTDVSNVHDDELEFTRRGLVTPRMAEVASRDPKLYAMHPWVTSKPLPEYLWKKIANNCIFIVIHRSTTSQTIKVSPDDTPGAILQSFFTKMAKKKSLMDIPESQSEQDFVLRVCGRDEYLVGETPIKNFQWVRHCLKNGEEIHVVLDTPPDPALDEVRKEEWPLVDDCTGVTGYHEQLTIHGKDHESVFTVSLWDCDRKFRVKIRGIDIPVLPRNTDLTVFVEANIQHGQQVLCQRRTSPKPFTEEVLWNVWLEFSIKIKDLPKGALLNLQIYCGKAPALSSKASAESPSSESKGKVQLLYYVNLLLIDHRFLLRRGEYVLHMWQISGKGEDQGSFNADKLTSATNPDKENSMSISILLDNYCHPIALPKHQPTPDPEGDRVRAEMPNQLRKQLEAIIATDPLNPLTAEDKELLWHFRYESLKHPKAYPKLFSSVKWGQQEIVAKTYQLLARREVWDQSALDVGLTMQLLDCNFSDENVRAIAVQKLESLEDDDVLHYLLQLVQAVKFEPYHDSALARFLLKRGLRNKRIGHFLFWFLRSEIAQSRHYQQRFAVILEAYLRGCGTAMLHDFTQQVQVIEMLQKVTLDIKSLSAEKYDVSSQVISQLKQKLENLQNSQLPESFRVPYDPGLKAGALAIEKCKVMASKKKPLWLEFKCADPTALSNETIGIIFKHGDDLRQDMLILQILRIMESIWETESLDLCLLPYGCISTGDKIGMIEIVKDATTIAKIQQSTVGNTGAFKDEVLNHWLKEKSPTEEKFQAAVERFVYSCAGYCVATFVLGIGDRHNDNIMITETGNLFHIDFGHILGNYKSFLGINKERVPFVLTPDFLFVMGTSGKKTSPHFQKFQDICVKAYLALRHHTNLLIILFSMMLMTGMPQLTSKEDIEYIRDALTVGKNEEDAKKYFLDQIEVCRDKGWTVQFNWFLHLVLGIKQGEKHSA

[4] = biological target: Phosphatidylinositol 4,5-bisphosphate 3-kinase catalytic subunit alpha isoform (Homo sapiens, UniProt P42336); assay: Inhibition of PI3Kalpha (unknown origin)
Phosphatidylinositol 4,5-bisphosphate 3-kinase catalytic subunit alpha isoform, sequence (P42336 whole entry, canonical isoform): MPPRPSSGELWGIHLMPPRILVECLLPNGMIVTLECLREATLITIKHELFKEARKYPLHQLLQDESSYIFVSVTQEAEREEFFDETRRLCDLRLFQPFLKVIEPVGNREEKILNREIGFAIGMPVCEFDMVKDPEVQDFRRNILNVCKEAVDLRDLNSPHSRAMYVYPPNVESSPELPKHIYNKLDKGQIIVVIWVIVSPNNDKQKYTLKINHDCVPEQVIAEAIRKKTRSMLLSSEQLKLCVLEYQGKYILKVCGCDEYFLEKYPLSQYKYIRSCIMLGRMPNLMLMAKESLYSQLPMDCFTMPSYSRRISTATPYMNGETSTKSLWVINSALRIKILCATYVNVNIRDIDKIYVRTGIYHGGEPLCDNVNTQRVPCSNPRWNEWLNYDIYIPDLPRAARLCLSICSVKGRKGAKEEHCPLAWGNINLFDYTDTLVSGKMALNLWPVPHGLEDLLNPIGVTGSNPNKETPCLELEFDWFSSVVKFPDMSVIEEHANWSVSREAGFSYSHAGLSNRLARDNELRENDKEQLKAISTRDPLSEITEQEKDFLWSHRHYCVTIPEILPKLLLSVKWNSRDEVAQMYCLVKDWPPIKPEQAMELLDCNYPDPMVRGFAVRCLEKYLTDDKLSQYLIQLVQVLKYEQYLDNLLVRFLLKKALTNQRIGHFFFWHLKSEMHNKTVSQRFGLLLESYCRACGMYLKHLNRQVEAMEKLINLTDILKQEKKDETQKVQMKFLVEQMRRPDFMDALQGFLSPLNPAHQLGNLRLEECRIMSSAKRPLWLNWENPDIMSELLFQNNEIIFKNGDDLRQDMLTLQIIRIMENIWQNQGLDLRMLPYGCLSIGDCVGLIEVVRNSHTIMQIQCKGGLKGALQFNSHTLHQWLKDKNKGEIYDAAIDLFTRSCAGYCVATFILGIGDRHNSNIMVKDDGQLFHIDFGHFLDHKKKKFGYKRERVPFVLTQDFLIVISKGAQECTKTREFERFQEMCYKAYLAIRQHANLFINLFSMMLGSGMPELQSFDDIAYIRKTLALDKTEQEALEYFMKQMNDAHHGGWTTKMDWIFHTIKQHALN

JeKo-1 = assay: Antiproliferative activity against human JeKo-1 assessed as reduction in cell growth by MTS assay; type: functional, cell-based

Structure (SMILES) | Ratio IC50 (Homo sapiens) | IC50 [1] [nM] | also measured
CCc1nc2ccccc2n1-c1nc(N2CCOCC2)c2sc(CN3CCN(C(C)=O)CC3=O)cc2n1 | 35 | 3.2 | 
CCc1nc2ccccc2n1-c1nc(N2CCOCC2)c2sc(CN3CCN(CC4CC4)CC3=O)cc2n1 | 64 | 6.3 | 
CCc1nc2ccccc2n1-c1nc(N2CCOCC2)c2sc(CN3CCN(C(=O)OC(C)(C)C)CC3=O)cc2n1 | 52 | 12 | 
CCc1nc2ccccc2n1-c1nc(N2CCOCC2)c2sc(CN3CCN(CC(N)=O)C(=O)C3)cc2n1 | 7.1 | 12 | 
CCc1nc2ccccc2n1-c1nc(N2CCOCC2)c2sc(CN3CCN(S(=O)(=O)C4CC4)CC3=O)cc2n1 | 38 | 1.2 | 
CCc1nc2ccccc2n1-c1nc(N2CCOCC2)c2sc(CN3CCN(CC(=O)N4CCOCC4)C(=O)C3)cc2n1 | 11 | 15 | 
CCc1nc2ccccc2n1-c1nc(N2CCOCC2)c2sc(CN3CCN(C(=O)C4CC4)CC3=O)cc2n1 |  | 1.1 | IC50 (HEK293): > 20000 nM; IC50 [2]: 137 nM; IC50 (OCI-Ly10): 7600 nM; IC50 (Vero): > 20000 nM; IC50 (SU-DHL-6): 100 nM; IC50 (L02): > 20000 nM; IC50 (OCI-Ly3): 2200 nM; IC50 [3]: 185 nM; IC50 [4]: 84 nM; IC50 (JeKo-1): 190 nM
CCc1nc2ccccc2n1-c1nc(N2CCOCC2)c2sc(CN3CCN(C4CCC(O)CC4)C(=O)C3)cc2n1 (configuration not stated) | 7.7 | 5.7 | 
CC[C@H](Nc1ncnc2[nH]cnc12)c1nc2cccc(F)c2c(=O)n1-c1ccccc1 [IDELALISIB] |  |  | IC50 (HEK293): > 20000 nM; IC50 (OCI-Ly10): > 10000 nM; IC50 (Vero): > 20000 nM; IC50 (SU-DHL-6): 120 nM; IC50 (L02): > 20000 nM; IC50 (OCI-Ly3): 5200 nM; IC50 (JeKo-1): 120 nM
CCc1nc2ccccc2n1-c1nc(N2CCOCC2)c2sc(CN3CCN(C4CCSCC4)CC3=O)cc2n1 | 56 | 4.8 | 
CCc1nc2ccccc2n1-c1nc(N2CCOCC2)c2sc(CN3CCN(C4CCOCC4)CC3=O)cc2n1 | 61 | 6.2 | 
CCc1nc2ccccc2n1-c1nc(N2CCOCC2)c2sc(CN3CCN(C)C(=O)C3)cc2n1 | 53 | 4.9 | 
CCc1nc2ccccc2n1-c1nc(N2CCOCC2)c2sc(CN3CCN(C4CCC(=O)CC4)CC3=O)cc2n1 |  | 1.6 | 
CCc1nc2ccccc2n1-c1nc(N2CCOCC2)c2sc(CN3CCN(C4CCC5(CC4)OCCO5)CC3=O)cc2n1 | 13 | 2.2 | 
CCc1nc2ccccc2n1-c1nc(N2CCOCC2)c2sc(CN3CCN(C4CCN(C)CC4)CC3=O)cc2n1 | 25 | 15 | 
CCc1nc2ccccc2n1-c1nc(N2CCOCC2)c2sc(CN3CCN([C@H]4CC[C@H](O)CC4)C(=O)C3)cc2n1 | 35 | 2.1 | 
CCc1nc2ccccc2n1-c1nc(N2CCOCC2)c2sc(CN3CCN(CC4CC4)C(=O)C3)cc2n1 | 49 | 2.5 | 
C=CCN1CCN(Cc2cc3nc(-n4c(CC)nc5ccccc54)nc(N4CCOCC4)c3s2)C(=O)C1 |  | 1.6 | IC50 (HEK293): > 20000 nM; IC50 [2]: 232 nM; IC50 (OCI-Ly10): > 10000 nM; IC50 (Vero): > 20000 nM; IC50 (SU-DHL-6): 570 nM; IC50 (L02): > 20000 nM; IC50 (OCI-Ly3): 8600 nM; IC50 [3]: 266 nM; IC50 [4]: 295 nM; IC50 (JeKo-1): 470 nM
CCc1nc2ccccc2n1-c1nc(N2CCOCC2)c2sc(CN3CCN(CC(N)=O)CC3=O)cc2n1 | 25 | 6.2 | 
CCc1nc2ccccc2n1-c1nc(N2CCOCC2)c2sc(CN3CCN(c4cccnc4)C(=O)C3)cc2n1 | 12 | 13 | 
CCc1nc2ccccc2n1-c1nc(N2CCOCC2)c2sc(CN3CCN(S(C)(=O)=O)CC3)cc2n1 | 2.4 | 4.1 | 
CCc1nc2ccccc2n1-c1nc(N2CCOCC2)c2sc(CN3CCN(c4cnn(C)c4)C(=O)C3)cc2n1 | 24 | 3.4 | 

Structure (SMILES) | Ratio IC50 (Homo sapiens) | IC50 [1] [nM] | also measured
CCc1nc2ccccc2n1-c1nc(N2CCOCC2)c2sc(CN3CCN(C4CCC(F)(F)CC4)CC3=O)cc2n1 | 71 | 3.8 | 
CCc1nc2ccccc2n1-c1nc(N2CCOCC2)c2sc(CN3CCN(C(=O)C4CCCC4)CC3=O)cc2n1 | 95 | 2 | 
C=CC(=O)N1CCN(Cc2cc3nc(-n4c(CC)nc5ccccc54)nc(N4CCOCC4)c3s2)C(=O)C1 | 43 | 2.9 | 
CCc1nc2ccccc2n1-c1nc(N2CCOCC2)c2sc(CN3CCN(S(=O)(=O)CC)CC3=O)cc2n1 | 10 | 4.4 | 
CCc1nc2ccccc2n1-c1nc(N2CCOCC2)c2sc(CN3CCN(C(=O)C4CCC4)CC3=O)cc2n1 |  | 1.4 | IC50 (HEK293): > 20000 nM; IC50 [2]: 165 nM; IC50 (OCI-Ly10): > 10000 nM; IC50 (Vero): > 20000 nM; IC50 (SU-DHL-6): 80 nM; IC50 (L02): > 20000 nM; IC50 (OCI-Ly3): 1500 nM; IC50 [3]: 303 nM; IC50 [4]: 117 nM; IC50 (JeKo-1): 120 nM
CCc1nc2ccccc2n1-c1nc(N2CCOCC2)c2sc(CN3CCN(C4CCCCC4)CC3=O)cc2n1 | 21 | 12 | 
CCc1nc2ccccc2n1-c1nc(N2CCOCC2)c2sc(CN3CCN(C(=O)C4CCCCC4)CC3=O)cc2n1 | 43 | 7.9 | 
CCc1nc2ccccc2n1-c1nc(N2CCOCC2)c2sc(CN3CCN(c4nccs4)C(=O)C3)cc2n1 | 7.7 | 2.1 | 
CCc1nc2ccccc2n1-c1nc(N2CCOCC2)c2sc(CN3CCN(C(C)C)CC3=O)cc2n1 | 53 | 2.1 | 
CCc1nc2ccccc2n1-c1nc(N2CCOCC2)c2sc(CN3CCN(C)CC3=O)cc2n1 | 7.7 | 4.5 | 
CCc1nc2ccccc2n1-c1nc(N2CCOCC2)c2sc(CN3CCN(S(C)(=O)=O)CC3=O)cc2n1 | 10 | 2.2 | 
CCc1nc2ccccc2n1-c1nc(N2CCOCC2)c2sc(CN3CCNC(=O)C3)cc2n1 | 13 | 20 | 
CCc1nc2ccccc2n1-c1nc(N2CCOCC2)c2sc(CN3CCN(C4CCCC4)CC3=O)cc2n1 |  | 2.9 | IC50 (HEK293): > 20000 nM; IC50 [2]: > 500 nM; IC50 (OCI-Ly10): > 10000 nM; IC50 (Vero): > 20000 nM; IC50 (SU-DHL-6): 530 nM; IC50 (L02): > 20000 nM; IC50 (OCI-Ly3): 6900 nM; IC50 [3]: 370 nM; IC50 [4]: 243 nM; IC50 (JeKo-1): 560 nM
CCc1nc2ccccc2n1-c1nc(N2CCOCC2)c2sc(CN3CCN(CC(F)(F)F)CC3=O)cc2n1 | 32 | 6.3 | 
CCc1nc2ccccc2n1-c1nc(N2CCOCC2)c2sc(CN3CCN(C4CCCC4)C(=O)C3)cc2n1 |  | 2.1 | IC50 (HEK293): > 20000 nM; IC50 [2]: > 500 nM; IC50 (OCI-Ly10): > 10000 nM; IC50 (Vero): > 20000 nM; IC50 (SU-DHL-6): 180 nM; IC50 (L02): > 20000 nM; IC50 (OCI-Ly3): 2800 nM; IC50 [3]: > 500 nM; IC50 [4]: 250 nM; IC50 (JeKo-1): 170 nM
CCc1nc2ccccc2n1-c1nc(N2CCOCC2)c2sc(CN3CCN(S(=O)(=O)C4CC4)CC3)cc2n1 | 13 | 4.8 | 
CCc1nc2ccccc2n1-c1nc(N2CCOCC2)c2sc(CN3CCN(CC)C(=O)C3)cc2n1 | 10 | 4.1 | 
CCc1nc2ccccc2n1-c1nc(N2CCOCC2)c2sc(CN3CCN(C4CCC(N5CCCC5)CC4)CC3=O)cc2n1 (configuration not stated) | 8 | 14 | 
CCCS(=O)(=O)N1CCN(Cc2cc3nc(-n4c(CC)nc5ccccc54)nc(N4CCOCC4)c3s2)C(=O)C1 | 4 | 3.5 | 
CCc1nc2ccccc2n1-c1nc(N2CCOCC2)c2sc(CN3CCN(C4CCCC4)CC3)cc2n1 | 31 | 42 | 
CCc1nc2ccccc2n1-c1nc(N2CCOCC2)c2sc(CN3CCN(C4CCC(N(C)C)CC4)CC3=O)cc2n1 (configuration not stated) | 36 | 14 | 
CCc1nc2ccccc2n1-c1nc(N2CCOCC2)c2sc(CN3CCN(C(=O)[C@H](C)O)CC3=O)cc2n1 | 49 | 3.6 | 
